# Test results taken from ChEMBL document CHEMBL4011656, “Discovery and Optimization of Chromeno[2,3-c]pyrrol-9(2H)-ones as Novel Selective and Orally Bioavailable Phosphodiesterase 5 Inhibitors for the Treatment of Pulmonary Arterial Hypertension” (J Med Chem, 2017).
# Activity calls are given as the source filed them. The calls are words filed in the database; no cut-off is given here.
# Experiments:
# [1] = tested on: Mus musculus; assay: Acute toxicity in Kunming mouse assessed as mortality at 1000 to 1500 mg/kg, po administered as single dose measured up to 2 weeks post dose; assay type: organism-based; details: in vivo, 336 h
# [2] = tested on: Mus musculus; assay: Acute toxicity in Kunming mouse assessed as effect on food consumption at 1000 to 1500 mg/kg, po administered as single dose measured up to 2 weeks post dose; assay type: organism-based; details: in vivo, 336 h
# [3] = tested on: Liver; assay: Intrinsic clearance in human liver microsomes at 0.5 uM; assay type: ADME, microsome
# [4] = target: Cytochrome P450 2D6 (Homo sapiens, UniProt P10635); assay: Inhibition of CYP2D6 in human microsomes in presence of NADPH; assay type: ADME
# Cytochrome P450 2D6, sequence (P10635 whole entry, the tested form may be a part): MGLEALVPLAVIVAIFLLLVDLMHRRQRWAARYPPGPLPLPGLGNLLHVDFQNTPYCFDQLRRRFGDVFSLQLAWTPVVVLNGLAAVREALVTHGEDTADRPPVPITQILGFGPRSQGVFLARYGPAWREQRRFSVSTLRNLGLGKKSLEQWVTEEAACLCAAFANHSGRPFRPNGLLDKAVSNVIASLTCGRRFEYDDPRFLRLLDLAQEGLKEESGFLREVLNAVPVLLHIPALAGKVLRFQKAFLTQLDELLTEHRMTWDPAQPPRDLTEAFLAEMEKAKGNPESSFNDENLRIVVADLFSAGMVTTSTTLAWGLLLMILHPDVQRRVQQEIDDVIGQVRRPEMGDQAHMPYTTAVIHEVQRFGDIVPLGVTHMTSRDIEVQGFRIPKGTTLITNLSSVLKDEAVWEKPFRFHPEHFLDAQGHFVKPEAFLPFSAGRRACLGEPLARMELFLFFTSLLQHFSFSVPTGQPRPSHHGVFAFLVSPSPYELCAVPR
# [5] = target: cAMP and cAMP-inhibited cGMP 3',5'-cyclic phosphodiesterase 10A (Homo sapiens, UniProt Q9Y233); assay: Inhibition of PDE10A (449 to 770 residues) (unknown origin) expressed in Escherichia coli BL21(DE3) using [3H]cGMP or [3H]cAMP as substrate after 15 mins by liquid scintillation counting method
# cAMP and cAMP-inhibited cGMP 3',5'-cyclic phosphodiesterase 10A, sequence (Q9Y233 whole entry, the tested form may be a part): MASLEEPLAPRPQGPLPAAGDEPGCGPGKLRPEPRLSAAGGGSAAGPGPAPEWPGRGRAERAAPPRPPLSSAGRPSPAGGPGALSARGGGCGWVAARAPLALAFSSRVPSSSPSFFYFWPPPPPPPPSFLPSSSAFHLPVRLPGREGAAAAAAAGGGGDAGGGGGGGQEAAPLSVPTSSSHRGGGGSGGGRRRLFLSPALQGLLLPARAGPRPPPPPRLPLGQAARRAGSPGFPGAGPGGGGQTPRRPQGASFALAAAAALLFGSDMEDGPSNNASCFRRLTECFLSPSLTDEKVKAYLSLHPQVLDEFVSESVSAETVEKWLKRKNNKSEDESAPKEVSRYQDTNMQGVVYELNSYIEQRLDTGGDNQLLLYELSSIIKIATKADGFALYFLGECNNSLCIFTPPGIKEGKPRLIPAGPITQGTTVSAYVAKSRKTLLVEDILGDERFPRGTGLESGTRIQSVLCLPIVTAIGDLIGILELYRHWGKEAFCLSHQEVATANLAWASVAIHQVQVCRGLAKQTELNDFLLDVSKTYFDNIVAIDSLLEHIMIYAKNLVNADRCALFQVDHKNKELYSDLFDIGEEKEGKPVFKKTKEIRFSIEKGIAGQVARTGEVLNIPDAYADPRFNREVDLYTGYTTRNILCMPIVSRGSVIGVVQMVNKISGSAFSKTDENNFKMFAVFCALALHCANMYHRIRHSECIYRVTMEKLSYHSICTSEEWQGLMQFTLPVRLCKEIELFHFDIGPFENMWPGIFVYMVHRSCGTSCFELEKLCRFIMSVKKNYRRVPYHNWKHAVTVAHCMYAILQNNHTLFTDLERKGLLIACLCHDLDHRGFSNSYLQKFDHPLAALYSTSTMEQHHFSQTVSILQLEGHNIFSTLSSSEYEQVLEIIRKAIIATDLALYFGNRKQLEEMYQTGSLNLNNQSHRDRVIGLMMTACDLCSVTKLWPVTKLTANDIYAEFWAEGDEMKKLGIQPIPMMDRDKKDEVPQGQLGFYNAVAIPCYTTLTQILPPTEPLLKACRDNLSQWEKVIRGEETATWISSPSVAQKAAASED
# [6] = Apparent clearance in human liver microsomes at 0.5 uM; assay type: ADME, microsome; details: read-out: CLH(app)
# [7] = tested on: Mus musculus; assay: Acute toxicity in Kunming mouse assessed as poisoning symptoms at 1000 to 1500 mg/kg, po administered as single dose measured up to 2 weeks post dose; assay type: organism-based; details: in vivo, 336 h
# [8] = tested on: Mus musculus; assay: Acute toxicity in Kunming mouse assessed as effect on body weight at 1000 to 1500 mg/kg, po administered as single dose measured up to 2 weeks post dose; assay type: organism-based; details: in vivo, 336 h
# [9] = target: High affinity cGMP-specific 3',5'-cyclic phosphodiesterase 9A (Homo sapiens, UniProt O76083); assay: Inhibition of PDE9A2 (181 to 506 residues) (unknown origin) expressed in Escherichia coli BL21(DE3) using [3H]cGMP or [3H]cAMP as substrate after 15 mins by liquid scintillation counting method
# High affinity cGMP-specific 3',5'-cyclic phosphodiesterase 9A, sequence (O76083 whole entry, the tested form may be a part): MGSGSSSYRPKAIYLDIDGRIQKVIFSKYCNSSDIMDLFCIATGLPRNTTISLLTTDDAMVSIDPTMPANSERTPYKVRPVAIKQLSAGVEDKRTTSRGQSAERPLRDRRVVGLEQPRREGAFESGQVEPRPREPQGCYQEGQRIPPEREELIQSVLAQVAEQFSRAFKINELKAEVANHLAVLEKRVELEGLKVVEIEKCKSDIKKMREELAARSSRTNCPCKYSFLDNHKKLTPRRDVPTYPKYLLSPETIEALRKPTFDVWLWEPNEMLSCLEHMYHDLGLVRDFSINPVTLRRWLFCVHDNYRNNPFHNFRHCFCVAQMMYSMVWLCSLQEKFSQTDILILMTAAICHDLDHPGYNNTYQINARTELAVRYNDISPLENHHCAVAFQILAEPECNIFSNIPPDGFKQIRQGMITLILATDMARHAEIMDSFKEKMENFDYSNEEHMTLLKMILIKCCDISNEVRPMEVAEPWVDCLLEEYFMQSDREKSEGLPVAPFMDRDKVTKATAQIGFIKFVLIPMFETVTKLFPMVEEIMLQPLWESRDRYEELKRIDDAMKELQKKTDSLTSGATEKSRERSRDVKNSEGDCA
# [10] = target: T1, Cytochrome P450 1A2 (Homo sapiens, UniProt P05177); assay: Inhibition of CYP1A2 in human microsomes in presence of NADPH; assay type: ADME
# T1 sequence (P05177 whole entry): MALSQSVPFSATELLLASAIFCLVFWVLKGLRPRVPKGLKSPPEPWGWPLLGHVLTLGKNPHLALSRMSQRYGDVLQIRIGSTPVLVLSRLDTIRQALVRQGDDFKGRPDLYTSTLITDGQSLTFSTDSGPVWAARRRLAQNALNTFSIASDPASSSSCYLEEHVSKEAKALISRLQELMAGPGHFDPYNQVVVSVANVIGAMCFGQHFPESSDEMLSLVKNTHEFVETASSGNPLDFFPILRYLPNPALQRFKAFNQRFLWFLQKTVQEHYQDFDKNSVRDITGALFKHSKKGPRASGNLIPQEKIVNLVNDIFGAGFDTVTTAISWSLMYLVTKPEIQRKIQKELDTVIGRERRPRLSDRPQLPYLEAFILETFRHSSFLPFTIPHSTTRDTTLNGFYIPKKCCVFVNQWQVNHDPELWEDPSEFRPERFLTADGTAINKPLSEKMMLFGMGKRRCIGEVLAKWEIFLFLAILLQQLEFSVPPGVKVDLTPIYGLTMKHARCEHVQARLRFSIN
# [11] = target: High affinity 3',5'-cyclic-AMP phosphodiesterase 7A (Homo sapiens, UniProt Q13946); assay: Inhibition of PDE7A1 (130 to 482 residues) (unknown origin) expressed in Escherichia coli BL21(DE3) using [3H]cGMP or [3H]cAMP as substrate after 15 mins by liquid scintillation counting method
# [12] = MRT (0 to t) in Sprague-Dawley rat at […], iv by LC-MS/MS analysis; assay type: ADME, organism-based; details: in vivo
# [13] = target: High affinity cAMP-specific and IBMX-insensitive 3',5'-cyclic phosphodiesterase 8A (Homo sapiens, UniProt O60658); assay: Inhibition of PDE8A1 (480 to 820 residues) (unknown origin) using [3H]cGMP or [3H]cAMP as substrate after 15 mins by liquid scintillation counting method
# High affinity cAMP-specific and IBMX-insensitive 3',5'-cyclic phosphodiesterase 8A, sequence (O60658 whole entry, the tested form may be a part): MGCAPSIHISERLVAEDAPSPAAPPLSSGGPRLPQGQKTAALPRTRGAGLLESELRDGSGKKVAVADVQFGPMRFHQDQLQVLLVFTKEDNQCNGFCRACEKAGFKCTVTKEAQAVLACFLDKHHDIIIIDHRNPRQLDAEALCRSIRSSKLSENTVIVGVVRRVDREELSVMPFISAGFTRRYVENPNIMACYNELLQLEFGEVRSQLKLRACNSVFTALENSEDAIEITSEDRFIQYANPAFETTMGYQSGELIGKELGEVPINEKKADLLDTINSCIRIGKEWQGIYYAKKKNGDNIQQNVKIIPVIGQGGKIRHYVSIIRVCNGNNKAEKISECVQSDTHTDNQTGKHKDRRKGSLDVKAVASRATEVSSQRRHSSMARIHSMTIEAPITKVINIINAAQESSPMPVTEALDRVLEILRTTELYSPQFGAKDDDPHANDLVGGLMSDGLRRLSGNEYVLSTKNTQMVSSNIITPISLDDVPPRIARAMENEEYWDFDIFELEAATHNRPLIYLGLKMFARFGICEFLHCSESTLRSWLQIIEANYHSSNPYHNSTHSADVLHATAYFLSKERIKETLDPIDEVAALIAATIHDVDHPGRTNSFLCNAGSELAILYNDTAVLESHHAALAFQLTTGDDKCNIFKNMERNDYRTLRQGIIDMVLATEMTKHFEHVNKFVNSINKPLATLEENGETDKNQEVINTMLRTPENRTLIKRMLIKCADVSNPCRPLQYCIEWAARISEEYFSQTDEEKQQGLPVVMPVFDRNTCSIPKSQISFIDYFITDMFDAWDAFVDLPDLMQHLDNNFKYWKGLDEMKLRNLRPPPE
# [14] = AUC (0 to infinity) in Sprague-Dawley rat at […], iv by LC-MS/MS analysis; assay type: ADME, organism-based; set-up: dose 2.5 mg/kg, time infinity, route intravenous; details: in vivo
# [15] = Tmax in Sprague-Dawley rat at 5 mg/kg, po by LC-MS/MS analysis; assay type: ADME, organism-based; details: in vivo
# [16] = Half life in human microsomes at 0.5 uM; assay type: ADME, microsome; details: liver microsomes
# [17] = tested on: Liver; assay: Drug metabolism in human liver microsomes assessed as metabolic rate; assay type: ADME, microsome
# [18] = MRT (0 to t) in Sprague-Dawley rat at 5 mg/kg, po by LC-MS/MS analysis; assay type: ADME, organism-based; details: in vivo
# [19] = target: Cytochrome P450 2C19 (Homo sapiens, UniProt P33261); assay: Inhibition of CYP2C19 in human microsomes in presence of NADPH; assay type: ADME
# [20] = tested on: Mus musculus; assay: Acute toxicity in Kunming mouse assessed as effect on water consumption at 1000 to 1500 mg/kg, po administered as single dose measured up to 2 weeks post dose; assay type: organism-based; details: in vivo, 336 h
# [21] = tested on: Liver; assay: Intrinsic clearance in rat liver microsomes at 0.5 uM; assay type: ADME, microsome
# [22] = target: Dual specificity calcium/calmodulin-dependent 3',5'-cyclic nucleotide phosphodiesterase 1B (Homo sapiens, UniProt Q01064); assay: Inhibition of PDE1B (10 to 487 residues) (unknown origin) expressed in Escherichia coli BL21(DE3) using [3H]cAMP or [3H]cGMP as substrate after 15 mins by liquid scintillation counting method
# Dual specificity calcium/calmodulin-dependent 3',5'-cyclic nucleotide phosphodiesterase 1B, sequence (Q01064 whole entry, the tested form may be a part): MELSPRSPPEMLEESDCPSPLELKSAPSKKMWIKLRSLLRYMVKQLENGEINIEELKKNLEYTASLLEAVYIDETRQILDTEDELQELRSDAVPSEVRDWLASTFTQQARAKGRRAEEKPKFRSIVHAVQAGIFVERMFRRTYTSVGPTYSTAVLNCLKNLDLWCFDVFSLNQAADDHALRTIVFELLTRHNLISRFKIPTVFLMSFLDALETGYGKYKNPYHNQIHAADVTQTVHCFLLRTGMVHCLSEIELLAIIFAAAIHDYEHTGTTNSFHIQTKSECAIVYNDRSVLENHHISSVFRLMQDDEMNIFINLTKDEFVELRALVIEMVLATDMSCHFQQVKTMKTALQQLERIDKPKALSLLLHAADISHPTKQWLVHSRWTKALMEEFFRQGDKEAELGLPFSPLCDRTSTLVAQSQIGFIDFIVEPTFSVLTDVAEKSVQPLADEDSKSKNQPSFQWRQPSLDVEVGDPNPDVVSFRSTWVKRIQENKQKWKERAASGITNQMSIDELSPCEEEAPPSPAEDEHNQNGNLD
# [23] = AUC (0 to t) in Sprague-Dawley rat at […], iv by LC-MS/MS analysis; assay type: ADME, organism-based; details: in vivo
# [24] = target: cGMP-inhibited 3',5'-cyclic phosphodiesterase 3A (Homo sapiens, UniProt Q14432); assay: Inhibition of PDE3A (679 to 1087 residues) (unknown origin) expressed in Escherichia coli BL21(DE3) using [3H]cAMP or [3H]cGMP as substrate after 15 mins by liquid scintillation counting method
# cGMP-inhibited 3',5'-cyclic phosphodiesterase 3A, sequence (Q14432 whole entry, the tested form may be a part): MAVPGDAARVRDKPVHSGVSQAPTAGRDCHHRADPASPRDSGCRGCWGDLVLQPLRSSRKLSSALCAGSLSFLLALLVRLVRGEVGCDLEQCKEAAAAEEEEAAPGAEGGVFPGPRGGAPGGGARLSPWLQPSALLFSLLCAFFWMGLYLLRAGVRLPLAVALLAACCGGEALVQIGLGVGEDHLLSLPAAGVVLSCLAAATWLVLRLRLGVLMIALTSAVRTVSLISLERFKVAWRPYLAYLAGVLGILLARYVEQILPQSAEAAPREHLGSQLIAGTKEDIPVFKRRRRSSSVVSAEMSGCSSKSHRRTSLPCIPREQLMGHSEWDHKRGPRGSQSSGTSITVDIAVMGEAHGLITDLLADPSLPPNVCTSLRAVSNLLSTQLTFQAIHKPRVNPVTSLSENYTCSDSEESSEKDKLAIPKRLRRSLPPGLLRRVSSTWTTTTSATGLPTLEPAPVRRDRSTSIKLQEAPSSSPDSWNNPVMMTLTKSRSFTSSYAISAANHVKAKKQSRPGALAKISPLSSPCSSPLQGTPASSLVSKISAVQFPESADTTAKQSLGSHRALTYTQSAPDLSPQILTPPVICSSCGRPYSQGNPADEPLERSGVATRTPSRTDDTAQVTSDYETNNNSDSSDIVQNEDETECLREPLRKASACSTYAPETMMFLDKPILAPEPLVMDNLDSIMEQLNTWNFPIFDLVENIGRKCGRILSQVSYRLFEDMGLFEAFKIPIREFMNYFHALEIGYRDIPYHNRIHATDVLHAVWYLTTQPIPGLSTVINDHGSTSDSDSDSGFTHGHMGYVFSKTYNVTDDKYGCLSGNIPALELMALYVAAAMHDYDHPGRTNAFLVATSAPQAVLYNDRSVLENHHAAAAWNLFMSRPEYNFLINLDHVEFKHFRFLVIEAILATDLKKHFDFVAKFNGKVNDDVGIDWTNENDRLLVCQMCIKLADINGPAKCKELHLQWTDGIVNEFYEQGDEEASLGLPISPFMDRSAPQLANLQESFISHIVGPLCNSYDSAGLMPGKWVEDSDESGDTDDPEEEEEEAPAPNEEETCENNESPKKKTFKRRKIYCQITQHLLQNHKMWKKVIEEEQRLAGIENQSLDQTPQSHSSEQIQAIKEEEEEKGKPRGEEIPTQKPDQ
# [25] = target: Cytochrome P450 2C9 (Homo sapiens, UniProt P11712); assay: Inhibition of CYP2C9 in human microsomes in presence of NADPH; assay type: ADME
# [26] = Acute toxicity in Kunming mouse administered as single oral dose measured up to 2 weeks post dose; details: in vivo
# [27] = Hepatic clearance in human microsomes at 0.5 uM; assay type: ADME, microsome; details: liver microsomes
# [28] = Oral bioavailability in Sprague-Dawley rat at 5 mg/kg by LC-MS/MS analysis; assay type: ADME, organism-based; details: in vivo
# [29] = tested on: Rattus norvegicus; assay: Reduction in MCT-induced increase in right ventricle hypertrophy index in Wistar rat model of monocrotaline pulmonary arterial hypertension at 5 mg/kg, po for 3 weeks; assay type: functional, organism-based
# [30] = Apparent clearance in rat liver microsomes at 0.5 uM; assay type: ADME, microsome; details: read-out: CLH(app)
# [31] = tested on: Liver; assay: Drug metabolism in rat liver microsomes assessed as metabolic rate; assay type: ADME, microsome
# [32] = tested on: Rattus norvegicus; assay: Reduction in MCT-induced increase in mean pulmonary arterial pressure in Wistar rat model of monocrotaline pulmonary arterial hypertension assessed as mean pulmonary arterial pressure at 5 mg/kg, po for 3 weeks (reference value: 32.74 mmHg); assay type: functional
# [33] = Cmax in Sprague-Dawley rat at 5 mg/kg, po by LC-MS/MS analysis; assay type: ADME, organism-based; set-up: dose 5 mg/kg, route oral; details: in vivo
# [34] = Half life in Sprague-Dawley rat at […], iv by LC-MS/MS analysis; assay type: ADME, organism-based; details: in vivo
smiles,measurement,setting,value
O=c1c2ccccc2oc2c(Cc3ccc4c(c3)OCO4)[nH]c(-c3nccs3)c12,Activity,[1],Non-Toxic
same,Activity,[2],Non-Toxic
same,CLH,[3],24.8 µL/min/mg
same,IC50,[4],> 25 µM
same,IC50,[5],0.153 µM
same,CLint scaled at 0.5 µM,[6],23.9 mL/min/kg
same,Activity,[7],Non-Toxic
same,Activity,[8],Non-Toxic
same,IC50,[9],> 10 µM
same,IC50,[10],7.6 µM
same,IC50,[11],> 10 µM
same,MRT last,[12],2.14 h
same,IC50,[13],6.22 µM
same,AUC(0-inf),[14],1730 ng·h/mL
same,Tmax,[15],4 h
same,half-life at 0.5 µM,[16],0.933 h
same,K,[17],0.0124
same,MRT last,[18],4.76 h
same,IC50,[19],> 20 µM
same,Activity,[20],Non-Toxic
same,CLH,[21],56.1 µL/min/mg
same,IC50,[22],> 10 µM
same,AUC(0-t),[23],1700 ng·h/mL
same,IC50,[24],> 10 µM
same,IC50,[25],> 25 µM
same,MTD at 336 h,[26],> 1500 mg/kg
same,CLhep predicted at 0.5 µM,[27],10.9 mL/min/kg
same,bioavailability,[28],63.4%
same,Activity,[29],Active
same,CLint scaled at 0.5 µM,[30],101 mL/min/kg
same,K,[31],0.0281
same,Activity,[32],18.65 mmHg
same,Cmax,[33],368 ng/mL
same,half-life,[34],6.02 h
